Data: patent publication US20230114241A1, “METHODS OF TREATING EPILEPSY USING THE SAME” (Trevena, Inc., priority 2019, published 2023)

molecular target: human sphingosine-1-phosphate receptor 1 (S1P1) (Homo sapiens, UniProt P21453); assay: Inhibition of cAMP production (HTRF cAMP HiRange), S1P1 CHO-K1 cells; type: cell-based; conditions: inhibition of cAMP production, S1P1; read-out: hS1P1 CAMP pEC50 (converted)
Method: Stable clonal Chinese hamster ovary K1 (CHO-K1) cells co-expressing EA-β-arrestin2 and the human sphingosine-1-phosphate receptor 1 (NM_001400, S1P1) with a C-terminal Prolink™ tag were purchased from DiscoverX corporation (Cat #: 93-0207C2).
Cell lines were cultured in AssayComplete™ Media 6 (DiscoverX Corporation, Cat #: 920018GF2) at 37° C. and 5% CO2 in a humidified CO2 and temperature-controlled incubator. To begin assay plating, cells were washed with Dulbecco's phosphate buffered saline (CellGro, Cat #: 21-031-CV) and lifted from the culturing flask by incubation (37° C., 5 min) with CellStripper (Cellgro, Cat #: 25-056-CI). […] Plated cells were incubated overnight at 37° C. and 5% CO2 in a humidified CO2 and temperature-controlled incubator.
Agonist-promoted G-protein responses were determined by measuring changes in intracellular cAMP using the HTRF® cAMP HiRange kit (CisBio, Cat #: 62AM6PEJ) based on time-resolved fluorescence resonance energy transfer (TR-FRET) technology. […] Following a 30-minute incubation at 37° C. and 5% CO2 in a humidified CO2 and temperature-controlled incubator, the components of the cAMP HiRange kit were added as per the manufacturer's instructions. After an hour incubation at room temperature, plates were analyzed by a BMG PheraStar microplate reader.
These values are normalized to fingolimod, a known agonist of the sphingosine-1-phosphate 1 receptor.

Chain of human sphingosine-1-phosphate receptor 1 (S1P1) (P21453 whole entry): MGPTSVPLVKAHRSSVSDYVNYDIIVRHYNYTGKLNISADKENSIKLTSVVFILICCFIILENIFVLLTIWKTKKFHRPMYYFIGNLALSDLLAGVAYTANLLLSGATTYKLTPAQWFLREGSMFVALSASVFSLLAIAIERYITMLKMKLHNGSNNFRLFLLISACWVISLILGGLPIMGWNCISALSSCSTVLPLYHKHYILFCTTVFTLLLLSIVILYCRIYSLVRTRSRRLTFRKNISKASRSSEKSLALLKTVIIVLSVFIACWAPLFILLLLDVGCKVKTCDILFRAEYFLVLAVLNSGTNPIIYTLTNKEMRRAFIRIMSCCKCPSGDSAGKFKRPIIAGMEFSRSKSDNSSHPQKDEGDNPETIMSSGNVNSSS

How did the EC50 turn out when `CC(C)n1nnc2cc(-c3nc4c(Cl)cccc4o3)ccc21` [Compound 427, 4-chloro-2-(1-isopropyl-1H-benzo[d][1,2,3]triazol-5-yl)benzo[d]oxazole] was run?
The EC50 was greater than 316 nM.

How did the EC50 turn out when `COc1cccc(-c2coc(-c3ccc4c(c3)nnn4C(C)C)n2)c1` [Compound 385, 5-[4-(3-methoxyphenyl)-1,3-oxazol-2-yl]-1-(propan-2-yl)-H-1,2,3-benzotriazole] was run?
The EC50 was greater than 316 nM.

How did the EC50 turn out when `CCc1ccccc1-c1nc(-c2ccc3c(c2)nnn3C(C)(C)CO)no1` [Compound 624, 2-(5-(5-(2-ethyl-phenyl)-1,2,4-oxadiazol-3-yl)-1H-benzo[d][1,2,3]triazol-1-yl)-2-methyl-propan-1-ol] was run?
The EC50 was greater than 316 nM.

`COc1ccccc1-c1nc(-c2ccc3c(c2)nnn3C(C)(C)CO)no1` [Compound 623, 2-(5-(5-(2-methoxy-phenyl)-1,2,4-oxadiazol-3-yl)-1H-benzo[d][1,2,3]triazol-1-yl)-2-methyl-propan-1-ol] was tested. Which EC50 did it give?
The EC50 was greater than 316 nM.

With `COc1cccc2oc(-c3ccc4c(c3)nnn4CC(C)C)nc12` [Compound 450, 2-(1-isobutyl-1H-benzo[d][1,2,3]triazol-5-yl)-4-methoxy-benzo[d]oxazole] as the compound, how does the EC50 read?
The EC50 was less than 316 nM.

How did the EC50 turn out when `COc1ccccc1-c1nc(-c2ccc3c(c2)nnn3C(C)C)co1` [Compound 575, 5-[2-(2-methoxy-phenyl)-1,3-oxazol-4-yl]-1-(propan-2-yl)-1H-1,2,3-benzotriazole] was run?
Its EC50 is less than 316 nM.

For `CC(C)Cn1nnc2cc(-c3nc4ccncc4o3)ccc21` [Compound 504, 2-(1-isobutyl-1H-benzo[d][1,2,3]triazol-5-yl)oxazolo[5,4-c]pyridine], which EC50 is on record?
The EC50 was greater than 316 nM.

same assay, conditions: inhibition of cAMP production; potency; read-out: hS1P1 CAMP pEC50 (converted)

For `COc1cc(C)c(-c2noc(-c3ccc4c(c3)nnn4C(C)C)n2)c(OC)c1` [Compound 136, 5-[3-(2,4-dimethoxy-6-methylphenyl)-1,2,4-oxadiazol-5-yl]-1-(propan-2-yl)-1H-1,2,3-benzotriazole], which EC50 is on record?
Its EC50 is greater than 316 nM.

With `CCC1(CC)CC(=O)c2cc(-c3nc(-c4cnccc4OC)no3)ccc2O1` [Compound 303, 2,2-diethyl-6-(3-(4-methoxypyridin-3-yl)-1,2,4-oxadiazol-5-yl)chroman-4-one] as the compound, how does the EC50 read?
Its EC50 is greater than 316 nM.

With `CC(C)Nc1ccc(-c2nc(-c3ccc4c(c3)CCC(=O)N4)no2)cc1C#N` [Compound 259, 2-(isopropylamino)-5-(3-(2-oxo-1,2,3,4-tetrahydroquinolin-6-yl)-1,2,4-oxadiazol-5-yl)benzonitrile] as the compound, how does the EC50 read?
Its EC50 is less than 316 nM.

`Cc1cc(C)cc(-c2noc(-c3ccc4c(c3)nnn4C(C)C)n2)c1` [Compound 204, 5-[3-(3,5-dimethy-lphenyl)-1,2,4-oxadiazol-5-yl]-1-(propan-2-yl)-1H-1,2,3-benzotriazole] was tested. Which EC50 did it give?
Its EC50 is greater than 316 nM.

How did the EC50 turn out when `c1ccc(-c2noc(-c3ccc4c(c3)nnn4C3CCCCC3)n2)cc1` [Compound 292, 1-cyclohexyl-5-(3-phenyl-1,2,4-oxadiazol-5-yl)-1H-1,2,3-benzotriazole] was run?
Its EC50 is greater than 316 nM.

How did the EC50 turn out when `c1cc(-c2noc(-c3ccc4c(c3)nnn4C3CC3)n2)ccn1` [Compound 295, 1-cyclopropyl-5-[3-(pyridin-4-yl)-1,2,4-oxadiazol-5-yl]-1H-1,2,3-benzotriazole] was run?
The EC50 was greater than 316 nM.

`COc1ccc(-c2noc(-c3ccc4c(c3)nnn4C3CCCCC3)n2)cc1C(F)(F)F` [Compound 284, 1-cyclohexyl-5-{3-[4-methoxy-3-(trifluoro-methyl)phenyl]-1,2,4-oxadiazol-5-yl}-1H-1,2,3-benzotriazole] was tested. Which EC50 did it give?
Its EC50 is greater than 316 nM.

`CC(C)n1nnc2cc(-c3nc(-c4ccccc4)co3)ccc21` [Compound 294, 5-(4-phenyl-1,3-oxazol-2-yl)-1-(propan-2-yl)-1H-1,2,3-benzotriazole] was tested. Which EC50 did it give?
Its EC50 is greater than 316 nM.

For `CCC1(CC)CC(=O)c2cc(-c3nsc(-c4ccc5c(c4)nnn5C(C)C)n3)ccc2O1` [Compound 143, 2,2-diethyl-6-(5-(1-isopropyl-1H-benzo[d][1,2,3]triazol-5-yl)-1,2,4-thiadiazol-3-yl)chroman-4-one], which EC50 is on record?
The EC50 was greater than 316 nM.

`CCCCC1(CCCC)CC(=O)c2cc(-c3nc(-c4cccnc4)no3)ccc2O1` [Compound 188, 2,2-dibutyl-6-[3-(pyridin-3-yl)-1,2,4-oxadiazol-5-yl]-3,4-dihydro-2H-1-benzo-pyran-4-one] was tested. Which EC50 did it give?
Its EC50 is greater than 316 nM.

How did the EC50 turn out when `COc1cncc(-c2nc(-c3ccc4c(c3)nnn4C(C)C)no2)c1` [Compound 272, 3-(1-isopropyl-1H-benzo[d][1,2,3]triazol-5-yl)-5-(5-methoxy-pyridin-3-yl)-1,2,4-oxadiazole] was run?
Its EC50 is greater than 316 nM.

How did the EC50 turn out when `CCCn1nnc2cc(-c3nc(-c4cc(C)cc(C)c4)no3)ccc21` [Compound 76, 5-[3-(3,5-dimethyl-phenyl)-1,2,4-oxadiazol-5-yl]-1-propyl-1H-1,2,3-benzotriazole] was run?
The EC50 was greater than 316 nM.

With `N#Cc1cc(-c2nnc(-c3ccc4[nH]cnc4c3)o2)ccc1NCC(F)F` [Compound 359, 5-[5-(1H-1,3-benzo-diazol-5-yl)-1,3,4-oxadiazol-2-yl]-2-[(2,2-difluoroethyl)amino] benzonitrile] as the compound, how does the EC50 read?
Its EC50 is less than 316 nM.

Which EC50 does the source give for `N#Cc1cc(-c2nnc(-c3ccc4[nH]ncc4c3)o2)ccc1NCC(F)F` [Compound 354, 2-[(2,2-difluoro-ethyl)amino]-5-[5-(1H-indazol-5-yl)-l,3,4-oxadiazol-2-yl]benzonitrile] here?
The EC50 was less than 316 nM.

For `CC(C)n1nnc2cc(-c3nc(-c4ccccc4OC(F)(F)F)no3)ccc21` [Compound 132, 5-(1-isopropyl-1H-benzo[d][1,2,3]triazol-5-yl)-3-(2-(trifluoro-methoxy)phenyl)-1,2,4-oxadiazole], which EC50 is on record?
Its EC50 is less than 316 nM.

For `O=C1CC2(CCCCC2)Oc2ccc(-c3nc(-c4ccncc4)no3)cc21` [Compound 280, 6-[3-(pyridin-4-yl)-1,2,4-oxadiazol-5-yl]-3,4-dihydrospiro[1-benzopyran-2,1′-cyclohexane]-4-one], which EC50 is on record?
Its EC50 is greater than 316 nM.

With `CC(C)CCn1nnc2cc(-c3nc(-c4ccc(C(F)(F)F)c(F)c4)no3)ccc21` [Compound 122, 5-{3-[3-fluoro-4-(trifluoromethyl)phenyl]-1,2,4-oxadiazol-5-yl}-1-(3-methyl-butyl)-1H-1,2,3-benzotriazole] as the compound, how does the EC50 read?
The EC50 was greater than 316 nM.

`CCC1(CC)CC(=O)c2cc(-c3nc(-c4ccc(NC(C)=O)cc4)no3)ccc2O1` [Compound 209, N-(4-(5-(2,2-diethyl-4-oxochroman-6-yl)-1,2,4-oxadiazol-3-yl)phenyl)acetamide] was tested. Which EC50 did it give?
The EC50 was less than 316 nM.

With `COc1cc(-c2noc(-c3ccc4c(c3)nnn4C3CCCC3)n2)ccn1` [Compound 281, 1-cyclopentyl-5-[3-(2-methoxypyridin-4-yl)-1,2,4-oxadiazol-5-yl]-1H-1,2,3-benzotriazole] as the compound, how does the EC50 read?
The EC50 was greater than 316 nM.

With `CC(C)n1nnc2cc(-c3noc(-c4cnccn4)n3)ccc21` [Compound 78, 3-(1-isopropyl-1H-benzo[d][1,2,3]triazol-5-yl)-5-(pyrazin-2-yl)-1,2,4-oxadiazole] as the compound, how does the EC50 read?
The EC50 was greater than 316 nM.

Which EC50 does the source give for `CC(C)n1nnc2cc(-c3nc(-c4ccccc4)no3)ccc21` [Compound 79, 5-(3-phenyl-1,2,4-oxadiazol-5-yl)-1-(propan-2-yl)-1H-1,2,3-benzotriazole] here?
The EC50 was less than 316 nM.

Which EC50 does the source give for `CCC1(CC)CC(=O)c2cc(-c3nc(-c4ccncc4)no3)ccc2O1` [Compound 27, 2,2-diethyl-6-[3-(pyridin-4-yl)-1,2,4-oxadiazol-5-yl]-3,4-dihydro-2H-1-benzopyran-4-one] here?
Its EC50 is greater than 316 nM.

For `Clc1ncccc1-c1noc(-c2ccc3c(c2)nnn3CC2CC2)n1` [Compound 199, 5-[3-(2-chloropyridin-3-yl)-1,2,4-oxadiazol-5-yl]-1-(cyclopropyl-methyl)-1H-1,2,3-benzotriazole], which EC50 is on record?
The EC50 was greater than 316 nM.
